Results taken from patent US8227612B2, “Quinoline compound and pharmaceutical composition, preparation method and uses thereof” (Shanghai Institute of Pharmaceutical Industry, priority 2008, dated 2012).

Test system: hyperlipidemia quail
Assay: Lipid-lowering in vivo experiments in hyperlipidemia quail
Conditions: for CHO / H/L / HDL-C / LDL-C / TG: oral, blood after four weeks hypercholesterol diet
Method: Lipid-lowering in vivo experiments are made in hyperlipidemia quail with the compounds [NT] according to the present invention. Atorvastatin (20 mg/kg) were used as the positive control. Two groups of dosage (Low: 5 mg/kg, High: 20 mg/kg) of the ten compounds of [NT] were tested. After one week feeding with normal diet, except for the normal control group, the model control group and the tested groups of quails were fed with hypercholesterol diet for four weeks, and then the blood was collected respectively for testing the content of […] including triglyceride, cholesterol, low density lipoprotein and high density lipoprotein.

[1] = oral administration, hyperlipidemia quail

## CC(C)c1c(C(=O)Nc2ccccc2)c(-c2ccccc2)c(-c2ccc(F)cc2)n1CC[C@@H](O)C[C@@H](O)CC(=O)O [Atorvastatin, reference compound]
High: 20 mg/kg
  CHO: 6.51 mmol/L
  H/L: 2.19
  HDL-C: 4.39 mmol/L
  LDL-C: 2.51 mmol/L
  TG: 0.76 mmol/L

## CC(C)Sc1ccc(-c2cc3c(-c4ccc(SC(C)C)cc4)c(/C=C/[C@@H](O)C[C@@H](O)CC(=O)O)cnc3c(-c3ccc(SC(C)C)cc3)c2-c2ccc(SC(C)C)cc2)cc1 [Compound A1, (3R,5S)-7-[4,6,7,8-tetra-(4-isopropylthiophenyl)quinoline-3-yl]-3,5-dihydroxy-6(E)-heptenoic acid]
High: 20 mg/kg
  CHO: 8.05 mmol/L
  H/L: 1.54
  HDL-C: 5.31 mmol/L
  LDL-C: 3.63 mmol/L
  TG: 0.51 mmol/L
Low: 5 mg/kg
  CHO: 8.72 mmol/L
  H/L: 1.91
  HDL-C: 5.84 mmol/L
  LDL-C: 3.99 mmol/L
  TG: 0.59 mmol/L
[1]
  lipid-lowering effect (in words): obvious lipid-lowering effect

## COc1cccc(Sc2cc3ncc(/C=C/[C@@H](O)C[C@@H](O)CC(=O)[O-])c(Sc4cccc(OC)c4)c3cc2F)c1.COc1cccc(Sc2cc3ncc(/C=C/[C@@H](O)C[C@@H](O)CC(=O)[O-])c(Sc4cccc(OC)c4)c3cc2F)c1.[Ca+2] [Compound A5]
High: 20 mg/kg
  CHO: 10.55 mmol/L
  H/L: 1.06
  HDL-C: 5.35 mmol/L
  LDL-C: 6.40 mmol/L
  TG: 0.58 mmol/L
Low: 5 mg/kg
  CHO: 9.66 mmol/L
  H/L: 1.29
  HDL-C: 5.35 mmol/L
  LDL-C: 5.07 mmol/L
  TG: 1.95 mmol/L
[1]
  lipid-lowering effect (in words): obvious lipid-lowering effect

## O=C([O-])C[C@H](O)C[C@H](O)/C=C/c1cnc2c(F)c(F)c(F)cc2c1Sc1ccc(F)cc1.O=C([O-])C[C@H](O)C[C@H](O)/C=C/c1cnc2c(F)c(F)c(F)cc2c1Sc1ccc(F)cc1.[Ca+2] [Compound A8]
High: 20 mg/kg
  CHO: 5.57 mmol/L
  H/L: 2.21
  HDL-C: 3.73 mmol/L
  LDL-C: 1.94 mmol/L
  TG: 0.45 mmol/L
Low: 5 mg/kg
  CHO: 9.11 mmol/L
  H/L: 1.58
  HDL-C: 4.75 mmol/L
  LDL-C: 3.46 mmol/L
  TG: 1.50 mmol/L
[1]
  lipid-lowering effect (in words): obvious lipid-lowering effect

## COc1cccc(Sc2c(/C=C/[C@@H](O)C[C@@H](O)CC(=O)[O-])cnc3cc(Cl)c(F)cc23)c1.COc1cccc(Sc2c(/C=C/[C@@H](O)C[C@@H](O)CC(=O)[O-])cnc3cc(Cl)c(F)cc23)c1.[Ca+2] [Compound A11]
High: 20 mg/kg
  CHO: 8.53 mmol/L
  H/L: 1.33
  HDL-C: 5.06 mmol/L
  LDL-C: 4.30 mmol/L
  TG: 0.42 mmol/L
Low: 5 mg/kg
  CHO: 11.63 mmol/L
  H/L: 1.24
  HDL-C: 6.32 mmol/L
  LDL-C: 6.51 mmol/L
  TG: 0.56 mmol/L
[1]
  lipid-lowering effect (in words): obvious lipid-lowering effect

## O=C([O-])C[C@H](O)C[C@H](O)/C=C/c1cnc2c(Oc3ccccc3)c(Oc3ccccc3)c(Oc3ccccc3)cc2c1Oc1ccccc1.O=C([O-])C[C@H](O)C[C@H](O)/C=C/c1cnc2c(Oc3ccccc3)c(Oc3ccccc3)c(Oc3ccccc3)cc2c1Oc1ccccc1.[Ca+2] [Compound A9, (3R,5S)-7-[4,6,7,8-tetra-phenoxyquinoline-3-yl]-3,5-dihydroxy-6(E)-heptenoic acid hemi calcium salt]
High: 20 mg/kg
  CHO: 9.18 mmol/L
  H/L: 1.54
  HDL-C: 4.98 mmol/L
  LDL-C: 4.08 mmol/L
  TG: 1.26 mmol/L
Low: 5 mg/kg
  CHO: 9.75 mmol/L
  H/L: 1.56
  HDL-C: 4.98 mmol/L
  LDL-C: 5.16 mmol/L
  TG: 1.24 mmol/L
[1]
  lipid-lowering effect (in words): obvious lipid-lowering effect

## O=C([O-])C[C@H](O)C[C@H](O)/C=C/c1cnc2c(F)c(Oc3ccccc3)c(F)cc2c1Oc1ccccc1.O=C([O-])C[C@H](O)C[C@H](O)/C=C/c1cnc2c(F)c(Oc3ccccc3)c(F)cc2c1Oc1ccccc1.[Ca+2] [Compound A12, (3R,5S)-7-[6,8-difluoro-4,7-di-(phenoxy)quinoline-3-yl]-3,5-dihydroxy-6(E)-heptenoic acid hemi calcium salt]
High: 20 mg/kg
  CHO: 6.25 mmol/L
  H/L: 2.11
  HDL-C: 3.77 mmol/L
  LDL-C: 2.52 mmol/L
  TG: 0.97 mmol/L
Low: 5 mg/kg
  CHO: 12.40 mmol/L
  H/L: 1.43
  HDL-C: 6.21 mmol/L
  LDL-C: 6.75 mmol/L
  TG: 0.54 mmol/L
[1]
  lipid-lowering effect (in words): obvious lipid-lowering effect

## O=C([O-])C[C@H](O)C[C@H](O)/C=C/c1cnc2cc(Cl)c(F)cc2c1Oc1ccc(F)cc1.O=C([O-])C[C@H](O)C[C@H](O)/C=C/c1cnc2cc(Cl)c(F)cc2c1Oc1ccc(F)cc1.[Ca+2] [Compound A14, (3R,5S)-7-[6-fluoro-7-chloro-4-(4-fluorophenoxy)quinoline-3-yl]-3,5-dihydroxy-6(E)-heptenoic acid hemi calcium salt]
High: 20 mg/kg
  CHO: 7.61 mmol/L
  H/L: 1.44
  HDL-C: 4.66 mmol/L
  LDL-C: 3.62 mmol/L
  TG: 0.96 mmol/L
Low: 5 mg/kg
  CHO: 11.64 mmol/L
  H/L: 1.15
  HDL-C: 6.63 mmol/L
  LDL-C: 6.40 mmol/L
  TG: 0.74 mmol/L
[1]
  lipid-lowering effect (in words): obvious lipid-lowering effect

## CC(C)c1ccc(Sc2cc3ncc(/C=C/[C@@H](O)C[C@@H](O)CC(=O)[O-])c(Sc4ccc(C(C)C)cc4)c3cc2F)cc1.CC(C)c1ccc(Sc2cc3ncc(/C=C/[C@@H](O)C[C@@H](O)CC(=O)[O-])c(Sc4ccc(C(C)C)cc4)c3cc2F)cc1.[Ca+2] [Compound A13]
High: 20 mg/kg
  CHO: 8.88 mmol/L
  H/L: 1.79
  HDL-C: 5.64 mmol/L
  LDL-C: 3.95 mmol/L
  TG: 0.35 mmol/L
Low: 5 mg/kg
  CHO: 14.13 mmol/L
  H/L: 0.92
  HDL-C: 6.93 mmol/L
  LDL-C: 9.23 mmol/L
  TG: 0.56 mmol/L
[1]
  lipid-lowering effect (in words): obvious lipid-lowering effect
  way of reducing lipidemia (in words): reduces lipidemia by lowering TG and increasing H/L ratio

## CC(C)Sc1ccc(-c2c(/C=C/[C@@H](O)C[C@@H](O)CC(=O)[O-])cnc3c(F)c(F)c(F)cc23)cc1.CC(C)Sc1ccc(-c2c(/C=C/[C@@H](O)C[C@@H](O)CC(=O)[O-])cnc3c(F)c(F)c(F)cc23)cc1.[Ca+2] [Compound A6, (3R,5S)-7-[6,7,8-trifluoro-4-(4-isopropylthiophenyl)quinoline-3-yl]-3,5-dihydroxy-6(E)-heptenoic acid hemi calcium salt]
High: 20 mg/kg
  CHO: 8.66 mmol/L
  H/L: 1.37
  HDL-C: 4.74 mmol/L
  LDL-C: 3.66 mmol/L
  TG: 4.47 mmol/L
Low: 5 mg/kg
  CHO: 8.65 mmol/L
  H/L: 1.21
  HDL-C: 4.89 mmol/L
  LDL-C: 4.61 mmol/L
  TG: 0.70 mmol/L
[1]
  lipid-lowering effect (in words): obvious lipid-lowering effect
